Measurements taken from patent publication US4912036A, “Rapid differentiation of bacteria using cyclic polypeptide antibiotics” (Eastman Kodak Company, priority 1986, dated 1990).

Tests used:
E. coli = assay: RIND VII reduction solution assay, ΔOD 635 nm; format: cell-based, Escherichia coli; conditions: E. coli 7 × 10^7 /ml, antibiotic 10^-4 molar
Protocol: (§1) Bacterial suspensions were prepared by growing the cells in BHT broth to stationary phase overnight at 37° C. P. auruginosa was grown with agitation. About 40 ml of each overnight culture was centrifuged, decanted and washed once with 0.05 molar potassium phosphate buffer or 0.05 molar N-2-hydroxy-ethylpiperazine-N'-2-ethanesulfonic acid (HEPES) buffer, pH 7.8, and resuspended in buffer.
(§2) TERGITOL 7 anionic surfactant was used to differentiate viable bacteria according to the prior art method. Various concentrations of TERGITOL 7 surfactant were mixed with a 10% glucose solution (50 μl), 3-(4,5-dimethyl-2-thiazolyl)-2,5-diphenyl-2N-tetrazolium bromide (MTT) (25 μl at 5 mg/ml methanol) or a RIND VII dispersion (1.5 ml) and phenazine methosulfate ETA (25 μl at 3 mg/ml methanol). The volume of each test solution was brought to 3 ml with potassium phosphate buffer. A cell suspension (100 μl at about 10^8 cells/ml) was then added. The solutions were incubated at 37° C. for 15 and 30 minutes in the presence of either E. coli, a gram(-) bacterium, or S. aureus, a gram(+) bacterium. The amount of dye formed was then determined visually, and graded as follows: "O" indicates no dye formation, +/- indicates faint dye formation, 1+ indicates light dye formation, 2+ indicates moderate dye formation, 3+ indicates strong dye formation, and 4+ indicates very strong dye formation. […]

P. vulgaris = assay: RIND VII reduction solution assay, ΔOD 635 nm; format: cell-based, Proteus vulgaris; conditions: P. vulgaris 7 × 10^7 /ml, antibiotic 10^-4 molar
Protocol: as §1, §2

S. aureus [1] = assay: RIND VII reduction solution assay, ΔOD 635 nm; format: cell-based, Staphylococcus aureus; conditions: S. aureus 7 × 10^7 /ml, antibiotic 10^-4 molar
Protocol: as §1, §2

S. pyogenes = assay: RIND VII reduction solution assay, ΔOD 635 nm; format: cell-based, Streptococcus pyogenes; conditions: cell concentration 1.5 × 10^8 /ml, antibiotic 10^-4 molar
S. aureus [2] = assay: Inhibition of RIND IX reduction by various cyclic polypeptide antibiotics; format: cell-based, Staphylococcus aureus; conditions: for Corrected % Inhibition: 635 nm
Protocol: The following materials were used in this example: stock solutions of RIND IX compound dispersion prepared as described above, glucose (10% in water), trimethyl-1,4-benzoquinone ETA (1.5 mg/ml methanol), and the antibiotics (1 mg/ml in dimethylsulfoxide). S. aureus cells were grown as described above. The final cell concentration in the assay mixture was about 4.3×10^8 cells/ml.
Test solutions were prepared by adding in the order: 1.2 ml of HEPES buffer, 50 μl glucose solution, 1.5 ml of RIND IX dispersion, 100 μl of antibiotic solution, 100 μl of cell suspension and 25 μl of ETA solution. Control solutions were prepared as described in Examples 2 and 3. Optical density readings (OD) were measured at 635 nm at 0 minutes and after incubation at 37° C. for 30 minutes for test and control solutions, and the change in density (ΔOD) was determined. Table VI below lists the results, expressed as corrected percent inhibition of the reduction of the RIND compound. The corrected percent inhibition is calculated by dividing the difference between the ΔOD obtained from the Cell Control without antibiotic and the ΔOD of the test solution, by ΔOD of the Cell Control without antibiotic. All readings were corrected by subtracting readings of the appropriate background Controls.
Solutions containing 2.9 ml HEPES, 50 μl of the antibiotic solution and 100 μl cell solution were incubated at 37° C. for 30 minutes, centrifuged for 10 minutes and decanted. The resulting pellet was then treated with 1.4 ml HEPES, 50 μl glucose solution, 1.5 ml RIND IX dispersion and 25 μl ETA solution, mixed well and the densities recorded as described above in Method 1. The corrected percent inhibition data was calculated as described in Method 1 above.

P. aeruginosa [3] = assay: MTT reduction solution assay, ΔOD 540 nm; format: cell-based, Pseudomonas aeruginosa; conditions: P. aeruginosa (-) 5×10^7, gramicidin S 0.00625 mg/ml, 37° C.
Protocol: (§3) These examples illustrate the differentiation of bacteria using a tetrazolium salt and phenolic dye as the reducible compounds and two cyclic polypeptide antibiotics according to the present invention. The tetrazolium salt was 3-(4,5-dimethyl-2-thiazolyl) -2,5-diphenyl-2H-tetrazolium bromide (MTT) which forms a colored formazan dye when reduced. The phenolic dye was 2,6-dichloroindophenol (DCIP) which forms a colorless species when reduced.
(§4) Solutions of the reducible compounds were prepared with the following: HEPES buffer (3 ml, 0.05 molar, pH 7.5), TRITON X-100 nonionic surfactant (1% concentration), glucose (50 μl of 10% in water), tryptose (50 μl of a 10% solution in water), MTT (25 μl of 5 mg/ml methanol) or DCIP (25 μl of 3 mg/ml methanol) and phenazine methosultate ETA (25 μl of 3 mg/ml methanol).
(§5) Test solutions were prepared from the following: reducible compound solution from above (200 μl), 50 μl of either gramicidin S solution (6 mg/ml methanol and 9 ml of buffer) or tyrocidin solution (100 mg/ml methanol and 8 ml of buffer) and 50 μl of cell suspension. […] The change in optical density (ΔOD) was determined after 30 minutes at 37° C. at 540 nm for the MTT assay and at 620 nm for the DCIP assay using a commercially available spectrophotometer.

S. aureus [4] = assay: DCIP reduction solution assay, ΔOD 620 nm; format: cell-based, Staphylococcus aureus; conditions: S. aureus (+) 5×10^7, gramicidin S 0.00625 mg/ml, 37° C.
Protocol: as §3, §4, §5

S. faecalis = assay: DCIP reduction solution assay, ΔOD 620 nm; format: cell-based, Streptococcus faecalis; conditions: S. faecalis (+) 5×10^7, gramicidin S 0.00625 mg/ml, 37° C.
Protocol: as §3, §4, §5

E. cloacae = assay: DCIP reduction solution assay, ΔOD 620 nm; format: cell-based, Enterobacter cloacae; conditions: E. cloacae (-) 5×10^7, gramicidin S 0.00625 mg/ml, 37° C.
Protocol: as §3, §4, §5

K. pneumoniae = assay: DCIP reduction solution assay, ΔOD 620 nm; format: cell-based, Klebsiella pneumoniae; conditions: K. pneumoniae (-) 5×10^7, gramicidin S 0.00625 mg/ml, 37° C.
Protocol: as §3, §4, §5

P. aeruginosa [5] = assay: DCIP reduction solution assay, ΔOD 620 nm; format: cell-based, Pseudomonas aeruginosa; conditions: P. aeruginosa (-) 5×10^7, gramicidin S 0.00625 mg/ml, 37° C.
Protocol: as §3, §4, §5

In the case of gramicidin S, the “Corrected ΔOD (15 Minutes)” value (E. coli) is reported as greater than 2.0, the “Corrected ΔOD (15 Minutes)” value (P. vulgaris) is reported as greater than 2.0 and the “Corrected ΔOD (15 Minutes)” value (S. aureus [1]) is reported as 0.107. For the same substance, the “Corrected ΔOD (15 Minutes)” value (S. pyogenes) was 0.186, the “inhibition of the ability of S. aureus to reduce the RIND compound, in words” value (S. aureus [2]; Methods 1 and 2) was “inhibits the ability of S. aureus, a gram-positive bacterium, to reduce the RIND compound” and the “Corrected % Inhibition” value (S. aureus [2]; Test Method 1 (antibiotic in the test solution), S. aureus about 4.3×10^8 cells/ml, 100 μl of 1 mg/ml antibiotic solution, 30 minutes at 37° C.) was 95.6%. The “Corrected % Inhibition” value (S. aureus [2]; Test Method 2 (cells preincubated with 50 μl antibiotic solution 30 minutes, centrifuged, pellet assayed), S. aureus) was 80.0%, the “ΔOD, 540 nm after 30 Minutes” value (P. aeruginosa [3]) was 0.955 and the “ΔOD, 620 nm after 30 Minutes” value (S. aureus [4]) was 0.096. For the same substance, the “ΔOD, 620 nm after 30 Minutes” value (S. faecalis) was 0.066, the “ΔOD, 620 nm after 30 Minutes” value (E. cloacae) was 0.997 and the “ΔOD, 620 nm after 30 Minutes” value (K. pneumoniae) was 1.062. For the same substance, the “ΔOD, 620 nm after 30 Minutes” value (P. aeruginosa [5]) was 1.040.
